# Literature values, collected in patent US11492588B2, “Lactococcus lactis subsp. lactis CCFM1018 and application thereof in preparation of food and medicine for excreting plasticizer” (priority 2018, dated 2022).
# Settings: human body
smiles,measurement,setting,value
"CCCCC(CC)COC(=O)c1ccccc1C(=O)OCC(CC)CCCC (stereo not shown) [DEHP, di(2-ethylhexyl) phthalate]",Absorption and distribution period,,4 to 8 h
same,Time within which most of the DEHP is completely metabolized,,≤ 24 h
same,Share converted into five secondary metabolites and excreted in urine,24 h after entry,about 67%
same,Share directly excreted in urine,24 h after entry,less than 10%
